Target: T1, human FP receptor (Homo sapiens, UniProt P43088)
T1 construct: expressed in transfected cells; host or cells: HEK 293 (stably transfected)
Experiment: Total intracellular inositol phosphate (InsP) accumulation in HEK 293 cells stably transfected with the human FP receptor
Type: cell-based
Conditions: FIG. 2; HEK 293 cells stably transfected with human FP receptor; free acid forms; rank among the prostaglandin analogs tested
Excerpt: An exemplary assay method may be described that correlates the ability of test compounds (FP receptor agonists) to induce hair growth with the ability of an established FP receptor agonist, in this case Bimatoprost free acid, to activate the FP receptor. The dose-dependent release of Inositol triphosphate by test compounds compared to the dose-dependent response of Bimatoprost free acid, an established eye lash-enhancing compound, may provide a structure activity relationship that may be used to predict the degree to which a given compound will promote eye lash growth.

T1 sequence (P43088 whole entry): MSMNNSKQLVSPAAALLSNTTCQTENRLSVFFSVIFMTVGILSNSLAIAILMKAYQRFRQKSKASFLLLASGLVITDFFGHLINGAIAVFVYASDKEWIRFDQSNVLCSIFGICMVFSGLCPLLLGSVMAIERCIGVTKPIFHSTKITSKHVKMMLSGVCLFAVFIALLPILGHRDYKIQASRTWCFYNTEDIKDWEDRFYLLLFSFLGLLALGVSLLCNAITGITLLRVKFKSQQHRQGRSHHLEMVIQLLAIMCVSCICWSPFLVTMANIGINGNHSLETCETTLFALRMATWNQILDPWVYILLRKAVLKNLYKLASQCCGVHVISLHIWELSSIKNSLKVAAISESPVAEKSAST

dose-dependent release of inositol triphosphate	SMILES
highest	O=C(O)CCCC=CCC1C(O)CC(O)C1C=CC(O)COc1ccccc1 (stereo not drawn) [16-phenoxy tetranor PGF2α analog, 16-phenoxy tetranor PGF2α]
lowest	O=C(O)CCC/C=C\C[C@@H]1[C@@H](/C=C/[C@@H](O)COc2cccc(C(F)(F)F)c2)[C@H](O)C[C@@H]1O [(+) fluprestonol]

Source: US20090088473A1, “METHOD FOR SCREENING OF PROSTAGLANDIN COMPOUNDS COMPRISING AN OPTIMAL FORMULATION FOR THE ENHANCEMENT OF HAIR GROWTH AND THE STIMULATION OF FOLLICULAR ANAGEN AND FORMULATIONS RESULTING THEREFROM” (CAYMAN CHEMICAL COMPANY, priority 2007, published 2009)
